According to US11473052B2, “Bacillus subtilis subspecies” (Novozymes A/S, priority 2015, dated 2022):
Read-outs that look alike come from different tables or passages of the source.

Experiments:
[1] = tested on: B. subtilis DSM 29870; test: MIC of antibiotics by broth micro dilution (CLSI M07-A9); conditions: Bacillus subtilis
[2] = tested on: S. aureus ATCC 29213; test: MIC of antibiotics by broth micro dilution (CLSI M07-A9), control strain; conditions: Staphylococcus aureus

For `CN[C@H](CC(C)C)C(=O)N[C@H]1C(=O)N[C@@H](CC(N)=O)C(=O)N[C@H]2C(=O)N[C@H]3C(=O)N[C@H](C(=O)N[C@H](C(=O)O)c4cc(O)cc(O)c4-c4cc3ccc4O)[C@H](O)c3ccc(c(Cl)c3)Oc3cc2cc(c3O[C@@H]2O[C@H](CO)[C@@H](O)[C@H](O)[C@H]2O[C@H]2C[C@](C)(N)[C@H](O)[C@H](C)O2)Oc2ccc(cc2Cl)[C@H]1O` [Vancomycin], the MIC ([1]; DSM29870, read-out: MIC 1) was 0.25 µg/mL, the MIC ([1]; DSM29870, read-out: MIC 2) was 0.25 µg/mL and the MIC ([1]; DSM29870, read-out: MIC 3) was 0.25 µg/mL. The MIC ([2]; ATCC29213, read-out: MIC 1) was 0.5 µg/mL, the MIC ([2]; ATCC29213, read-out: MIC 2) was 1 µg/mL and the MIC ([2]; ATCC29213, read-out: MIC 3) was 1 µg/mL.
